In brackets after ≈: the same amount, converted by molar mass.
Legend:
Oryctolagus cuniculus [1] = species: Oryctolagus cuniculus; assay: The compound was evaluated for fall in intraocular pressure (IOP) of Glaucomatous rabbits after treatment with one drop (50 microL) of a 2% solution at 90 min (pH 6.5); assay type: functional, Eye
Carbonic anhydrase 1 = Carbonic anhydrase 1 (Homo sapiens, UniProt P00915)
Description: Inhibitory activity against human recombinant carbonic anhydrase I (CA1)

Oryctolagus cuniculus [2] = species: Oryctolagus cuniculus; assay: The compound was evaluated for fall in intraocular pressure (IOP) of Glaucomatous rabbits after treatment with one drop (50 microL) of a 2% solution at 0 min (pH 6.5); assay type: functional, Eye
Carbonic anhydrase 4 = target: T1, Carbonic anhydrase 4 (Bos taurus, UniProt Q95323)
T1 sequence (Q95323 whole entry): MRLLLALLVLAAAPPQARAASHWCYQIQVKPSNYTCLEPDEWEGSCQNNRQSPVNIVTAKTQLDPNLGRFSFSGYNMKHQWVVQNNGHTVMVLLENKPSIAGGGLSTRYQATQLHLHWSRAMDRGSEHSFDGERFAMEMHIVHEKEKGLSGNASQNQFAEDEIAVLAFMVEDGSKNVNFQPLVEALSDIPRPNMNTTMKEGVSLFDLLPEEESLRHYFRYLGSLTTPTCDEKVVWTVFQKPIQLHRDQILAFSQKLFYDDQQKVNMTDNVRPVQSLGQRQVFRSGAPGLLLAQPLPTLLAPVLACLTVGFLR
Description: Inhibitory activity against bovine carbonic anhydrase IV (CA4), isolated from bovine lung microsomes

Oryctolagus cuniculus [3] = species: Oryctolagus cuniculus; assay: The compound was evaluated for fall in intraocular pressure (IOP) of Normotensive rabbits after treatment with one drop (50 microL) of a 2% solution at 0 min (pH 6.5); assay type: functional, Eye
Oryctolagus cuniculus [4] = species: Oryctolagus cuniculus; assay: The compound was evaluated for fall in intraocular pressure (IOP) of Normotensive rabbits after treatment with one drop (50 microL) of a 2% solution at 90 min (pH 6.5); assay type: functional, Eye
Oryctolagus cuniculus [5] = species: Oryctolagus cuniculus; assay: The compound was evaluated for fall in intraocular pressure (IOP) of Normotensive rabbits after treatment with one drop (50 microL) of a 2% solution at 30 min (pH 6.5); assay type: functional, Eye
Oryctolagus cuniculus [6] = species: Oryctolagus cuniculus; assay: The compound was evaluated for fall in intraocular pressure (IOP) of Glaucomatous rabbits after treatment with one drop (50 microL) of a 2% solution at 60 min (pH 6.5); assay type: functional, Eye
Oryctolagus cuniculus [7] = species: Oryctolagus cuniculus; assay: The compound was evaluated for fall in intraocular pressure (IOP) of Normotensive rabbits after treatment with one drop (50 microL) of a 2% solution at 60 min (pH 6.5); assay type: functional, Eye
Oryctolagus cuniculus [8] = species: Oryctolagus cuniculus; assay: The compound was evaluated for fall in intraocular pressure (IOP) of Glaucomatous rabbits after treatment with one drop (50 microL) of a 2% solution at 30 min (pH 6.5); assay type: functional, Eye
Oryctolagus cuniculus [9] = species: Oryctolagus cuniculus; assay: The compound was evaluated for fall in intraocular pressure (IOP) of Normotensive rabbits after treatment with one drop (50 microL) of a 2% solution at 30 min (pH 5.5); assay type: functional, Eye
Oryctolagus cuniculus [10] = species: Oryctolagus cuniculus; assay: The compound was evaluated for fall in intraocular pressure (IOP) of Normotensive rabbits after treatment with one drop (50 microL) of a 2% solution at 0 min (pH 5.5); assay type: functional, Eye
Oryctolagus cuniculus [11] = species: Oryctolagus cuniculus; assay: The compound was evaluated for fall in intraocular pressure (IOP) of Normotensive rabbits after treatment with one drop (50 microL) of a 2% solution at 90 min (pH 5.5); assay type: functional, Eye
Oryctolagus cuniculus [12] = species: Oryctolagus cuniculus; assay: The compound was evaluated for fall in intraocular pressure (IOP) of Glaucomatous rabbits after treatment with one drop (50 microL) of a 2% solution at 30 min (pH 6.4); assay type: functional, Eye
Oryctolagus cuniculus [13] = species: Oryctolagus cuniculus; assay: The compound was evaluated for fall in intraocular pressure (IOP) of Narmotensive rabbits after treatment with one drop (50 microL) of a 2% solution at 0 min (pH 6.4); assay type: functional, Eye
Oryctolagus cuniculus [14] = species: Oryctolagus cuniculus; assay: The compound was evaluated for fall in intraocular pressure (IOP) of Narmotensive rabbits after treatment with one drop (50 microL) of a 2% solution at 30 min (pH 6.4); assay type: functional, Eye
Oryctolagus cuniculus [15] = species: Oryctolagus cuniculus; assay: The compound was evaluated for fall in intraocular pressure (IOP) of Narmotensive rabbits after treatment with one drop (50 microL) of a 2% solution at 60 min (pH 6.4); assay type: functional, Eye
Oryctolagus cuniculus [16] = species: Oryctolagus cuniculus; assay: The compound was evaluated for fall in intraocular pressure (IOP) of Glaucomatous rabbits after treatment with one drop (50 microL) of a 2% solution at 90 min (pH 6.4); assay type: functional, Eye
Oryctolagus cuniculus [17] = species: Oryctolagus cuniculus; assay: The compound was evaluated for fall in intraocular pressure (IOP) of Narmotensive rabbits after treatment with one drop (50 microL) of a 2% solution at 90 min (pH 6.4); assay type: functional, Eye
Oryctolagus cuniculus [18] = species: Oryctolagus cuniculus; assay: The compound was evaluated for fall in intraocular pressure (IOP) of Glaucomatous rabbits after treatment with one drop (50 microL) of a 2% solution at 0 min ((pH 6.4); assay type: functional, Eye
Oryctolagus cuniculus [19] = species: Oryctolagus cuniculus; assay: The compound was evaluated for fall in intraocular pressure (IOP) of Glaucomatous rabbits after treatment with one drop (50 microL) of a 2% solution at 60 min (pH 6.4); assay type: functional, Eye
[20] = octanol/water
Description: Partition coefficient (logD) (chloroform/buffer)

[21] = not given; remark: listed apart in the source
Oryctolagus cuniculus [22] = species: Oryctolagus cuniculus; assay: The compound was evaluated for fall in intraocular pressure (IOP) of Normotensive rabbits after treatment with one drop (50 microL) of a 2% solution at 60 min (pH 5.5); assay type: functional, Eye
physchem = conditions: buffer, pH 7.4
Oryctolagus cuniculus [23] = species: Oryctolagus cuniculus; assay: The compound was evaluated for fall in intraocular pressure (IOP) of Normotensive rabbits after treatment with one drop (50 microL) of a 2% solution at 0 min (pH 6.4); assay type: functional, Eye
Oryctolagus cuniculus [24] = species: Oryctolagus cuniculus; assay: The compound was evaluated for fall in intraocular pressure (IOP) of Normotensive rabbits after treatment with one drop (50 microL) of a 2% solution at 30 min (pH 6.4); assay type: functional, Eye
Oryctolagus cuniculus [25] = species: Oryctolagus cuniculus; assay: The compound was evaluated for fall in intraocular pressure (IOP) of Normotensive rabbits after treatment with one drop (50 microL) of a 2% solution at 90 min (pH 6.4); assay type: functional, Eye
Oryctolagus cuniculus [26] = species: Oryctolagus cuniculus; assay: The compound was evaluated for fall in intraocular pressure (IOP) of Normotensive rabbits after treatment with one drop (50 microL) of a 2% solution at 60 min (pH 6.4); assay type: functional, Eye

Carbonic anhydrase 1, sequence (P00915 whole entry): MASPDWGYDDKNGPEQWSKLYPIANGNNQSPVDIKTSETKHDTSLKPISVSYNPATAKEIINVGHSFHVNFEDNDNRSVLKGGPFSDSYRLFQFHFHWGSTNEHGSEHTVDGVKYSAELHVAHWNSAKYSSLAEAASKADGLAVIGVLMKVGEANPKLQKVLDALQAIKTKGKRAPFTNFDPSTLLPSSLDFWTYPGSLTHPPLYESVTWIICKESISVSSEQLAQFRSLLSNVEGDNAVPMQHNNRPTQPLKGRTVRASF

In the case of `CN(CC(=O)Nc1nnc(S(N)(=O)=O)s1)C(=N)N`, the “Change in IOP” value (Oryctolagus cuniculus [1]) is reported as 14.5 mmHg, the Ki (Carbonic anhydrase 1) is reported as 170 nM and the “Change in IOP” value (Oryctolagus cuniculus [2]) is reported as 0 mmHg. For the same molecule, the Ki (Carbonic anhydrase 4) was 35 nM, the “Change in IOP” value (Oryctolagus cuniculus [3]) was 0 mmHg and the “Change in IOP” value (Oryctolagus cuniculus [4]) was 9.1 mmHg. For the same molecule, the “Change in IOP” value (Oryctolagus cuniculus [5]) was 6.5 mmHg, the “Change in IOP” value (Oryctolagus cuniculus [6]) was 13.4 mmHg and the “Change in IOP” value (Oryctolagus cuniculus [7]) was 10.1 mmHg. For the same molecule, the “Change in IOP” value (Oryctolagus cuniculus [8]) was 8.5 mmHg.
With `CNCC(=O)/N=c1\sc(S(N)(=O)=O)nn1C` the Ki (Carbonic anhydrase 1) was 290 nM, the Ki (Carbonic anhydrase 4) was 43 nM and the “Change in IOP” value (Oryctolagus cuniculus [3]) was 0 mmHg. For the same molecule, the “Change in IOP” value (Oryctolagus cuniculus [4]) was 5.5 mmHg, the “Change in IOP” value (Oryctolagus cuniculus [5]) was 3.3 mmHg and the “Change in IOP” value (Oryctolagus cuniculus [7]) was 6.2 mmHg.
In the case of `NCC(=O)Nc1nnc(S(N)(=O)=O)s1`, the “Change in IOP” value (Oryctolagus cuniculus [9]) is reported as 2.9 mmHg, the “Change in IOP” value (Oryctolagus cuniculus [10]) is reported as 0 mmHg and the Ki (Carbonic anhydrase 1) is reported as 350 nM. For the same molecule, the “Change in IOP” value (Oryctolagus cuniculus [11]) was 4.6 mmHg and the Ki (Carbonic anhydrase 4) was 55 nM.
With `NCC(=O)NCC(=O)Nc1nnc(S(N)(=O)=O)s1` the “Change in IOP” value (Oryctolagus cuniculus [12]) was 7.7 mmHg, the “Change in IOP” value (Oryctolagus cuniculus [13]) was 0 mmHg and the “Change in IOP” value (Oryctolagus cuniculus [14]) was 5.6 mmHg. For the same molecule, the Ki (Carbonic anhydrase 1) was 320 nM, the “Change in IOP” value (Oryctolagus cuniculus [15]) was 9 mmHg and the Ki (Carbonic anhydrase 4) was 45 nM. For the same molecule, the “Change in IOP” value (Oryctolagus cuniculus [16]) was 13.8 mmHg, the “Change in IOP” value (Oryctolagus cuniculus [17]) was 8.9 mmHg and the “Change in IOP” value (Oryctolagus cuniculus [18]) was 0 mmHg. For the same molecule, the “Change in IOP” value (Oryctolagus cuniculus [19]) was 12 mmHg.
In the case of `CNCC(=O)Nc1cc(Cl)c(S(N)(=O)=O)cc1S(N)(=O)=O`, the “Change in IOP” value (Oryctolagus cuniculus [9]) is reported as 2.5 mmHg, the “Change in IOP” value (Oryctolagus cuniculus [10]) is reported as 0 mmHg and the Ki (Carbonic anhydrase 1) is reported as 350 nM. For the same molecule, the kin was 7.9 h⁻¹, the logD [20] was 1.569 and the kin [21] was 4.6 h⁻¹. For the same molecule, the “Change in IOP” value (Oryctolagus cuniculus [11]) was 4.5 mmHg, the Ki (Carbonic anhydrase 4) was 50 nM and the “Change in IOP” value (Oryctolagus cuniculus [22]) was 5.2 mmHg. For the same molecule, the solubility (physchem) was 54 mM (≈ 19.3 mg/mL).
For `CNCC(=O)Nc1ccc(S(=O)(=O)Nc2ccc(S(N)(=O)=O)cc2)cc1`, the Ki (Carbonic anhydrase 1) was 50 nM, the Ki (Carbonic anhydrase 4) was 62 nM and the “Change in IOP” value (Oryctolagus cuniculus [3]) was 0 mmHg. For the same molecule, the “Change in IOP” value (Oryctolagus cuniculus [4]) was 5.5 mmHg, the “Change in IOP” value (Oryctolagus cuniculus [5]) was 2.5 mmHg and the “Change in IOP” value (Oryctolagus cuniculus [7]) was 6.3 mmHg.
In the case of `NCC(=O)NCC(=O)Nc1c(S(N)(=O)=O)cc(S(N)(=O)=O)c(Cl)c1Cl`, the “Change in IOP” value (Oryctolagus cuniculus [23]) is reported as 0 mmHg, the Ki (Carbonic anhydrase 1) is reported as 500 nM and the “Change in IOP” value (Oryctolagus cuniculus [24]) is reported as 3.2 mmHg. The “Change in IOP” value (Oryctolagus cuniculus [25]) was 4.8 mmHg, the kin was 11.5 h⁻¹ and the logD [20] was 2.133. For the same molecule, the kin [21] was 4.8 h⁻¹, the “Change in IOP” value (Oryctolagus cuniculus [26]) was 7 mmHg and the Ki (Carbonic anhydrase 4) was 56 nM. The solubility (physchem) was 59 mM (≈ 25.6 mg/mL).

Source: ChEMBL document CHEMBL1132382 (J Med Chem, 1999)
